After the bases stand the sugars from the 5' end (letter, count) and the backbone: PS all phosphorothioate, else s phosphorothioate and o phosphodiester by linkage. Methylation of C is not given here. e = 2'-O-(2-methoxyethyl) (MOE); k = constrained ethyl (cEt); d = 2'-deoxy (DNA); m = 2'-O-methyl
Target: HSD17B13
Details: ASO, HepaRG

Sequence	target mRNA inhibition (1 µM)	other results
GCCGCACACTGAAGCC (sugars k3 d10 k3, PS)	25%	
CAGGTTGAGATAAAGC (sugars kkdddddddddkekek, PS)	53%	
AGCGGCAAATTTGCTG (sugars k3 d10 k3, PS)	5%	
AACATCTCTGGGACCA (sugars k3 d9 k3 e1, PS)	61%	
GCTGCATTAATGCCAC (sugars k3 d10 k3, PS)	46%	
GAGTAATCAGTTTTCC (sugars k3 d10 k3, PS)	65%	
ATGCAGCTATAGGTAG (sugars k3 d10 k3, PS)	41%	
TAATAGCCAGTACAGT (sugars k3 d1 m1 d8 k3, PS)	51%	
CTCCTGAGTCTTTCTA (sugars k3 d10 k3, PS)	23%	
CCATAGGACATGGAGA (sugars k3 d10 k3, PS)	68%	target mRNA inhibition (0.02 µM): 7%; target mRNA inhibition (0.078 µM): 12%; target mRNA inhibition (0.313 µM): 31%; target mRNA inhibition (1.25 µM): 76%; target mRNA inhibition (5 µM): 90%
GCTTACGACAGGTCAT (sugars k3 d10 k3, PS)	73%	
ATAACCATAGGACATG (sugars k3 d10 k3, PS)	70%	target mRNA inhibition (0.02 µM): 37%; target mRNA inhibition (0.078 µM): 38%; target mRNA inhibition (0.313 µM): 58%; target mRNA inhibition (1.25 µM): 84%; target mRNA inhibition (5 µM): 92%
AAGTTAGCCCCCAGGA (sugars k3 d9 k3 e1, PS)	23%	
TTGAGTTCTCCACTGC (sugars k3 d9 k3 e1, PS)	26%	
TGGGAGTCGGATTATT (sugars k3 d10 k3, PS)	44%	
AAATTTGTGAACCTGC (sugars k3 d10 k3, PS)	26%	
GTAGAATTGTCTGTTA (sugars k3 d10 k3, PS)	51%	
GTTGAGATAAAGCTGC (sugars k3 d1 m1 d8 k3, PS)	51%	
GATCTCTTAGCTGTGC (sugars kkdddddddddkekek, PS)	45%	
ATAGATCCTTTTTTGG (sugars k3 d10 k3, PS)	6%	
CTTGATGTAGTGGGAG (sugars kkdddddddddkekek, PS)	20%	
TCTCTTGACAATGGTT (sugars kkdddddddddkekek, PS)	70%	target mRNA inhibition (0.02 µM): 15%; target mRNA inhibition (0.078 µM): 25%; target mRNA inhibition (0.313 µM): 43%; target mRNA inhibition (1.25 µM): 71%; target mRNA inhibition (5 µM): 70%
AAGTAGATGGTAAGTC (sugars k3 d10 k3, PS)	85%	target mRNA inhibition (0.02 µM): 7%; target mRNA inhibition (0.078 µM): 42%; target mRNA inhibition (0.313 µM): 67%; target mRNA inhibition (1.25 µM): 89%; target mRNA inhibition (5 µM): 95%
GATGCTCCATAATAAT (sugars k3 d1 m1 d8 k3, PS)	24%	

Sequence	target mRNA inhibition (1 µM)	other results
GAGAAATCTAAGAACC (sugars k3 d10 k3, PS)	42%	
AGGCTAGGGAAATCTT (sugars k3 d9 k3 e1, PS)	55%	
AGCAGAATTGTGAACG (sugars k3 d9 k3 e1, PS)	56%	
AATGCTACTTGAACAG (sugars k3 d1 m1 d8 k3, PS)	34%	
CGTCCTAGGAAACAAA (sugars k3 d10 k3, PS)	45%	
GAAAAAGGTTATCATG (sugars k3 d10 k3, PS)	31%	
AACTACATGACCTGGG (sugars k3 d10 k3, PS)	27%	
TCTTTAGTCAACAGTA (sugars k3 d10 k3, PS)	68%	
CCAGGTTGAGATAAAG (sugars kkdddddddddkekek, PS)	55%	
TTGCAATGAGATTACC (sugars k3 d10 k3, PS)	29%	
CAGATTGGAATGCTAC (sugars k3 d10 k3, PS)	74%	target mRNA inhibition (0.02 µM): 7%; target mRNA inhibition (0.078 µM): 12%; target mRNA inhibition (0.313 µM): 36%; target mRNA inhibition (1.25 µM): 73%; target mRNA inhibition (5 µM): 94%
GTTAUTCTCTTGACAA (sugars k3 d1 m1 d8 k3, PS)	29%	
TTACCCCTGGCTTTTC (sugars k3 d10 k3, PS)	26%	
ATAGCTAAGTATACTT (sugars k3 d10 k3, PS)	0%	
ACCAACGACTCCAAGT (sugars k3 d10 k3, PS)	16%	
GTCTAAAGTGCTGGTT (sugars k3 d10 k3, PS)	39%	
TAAATACCCTTGGTGG (sugars k3 d10 k3, PS)	7%	
CTACAGATTGGAATGC (sugars k3 d10 k3, PS)	52%	
AGACAGGGTGGTAACG (sugars k3 d10 k3, PS)	51%	
CAGCATTGTAATCTTG (sugars k3 d10 k3, PS)	43%	
GAGCGATAGATCTCTT (sugars k3 d10 k3, PS)	0%	
TAGAATTGTCTGTTAG (sugars k3 d10 k3, PS)	9%	
ATGCCAAGCTTTGTGT (sugars k3 d10 k3, PS)	50%	
ACCTATGGTCTAACAC (sugars k3 d10 k3, PS)	14%	

Sequence	target mRNA inhibition (1 µM)	other results
ACAGTTTAGATTGCAT (sugars k3 d10 k3, PS)	84%	target mRNA inhibition (0.02 µM): 12%; target mRNA inhibition (0.078 µM): 0%; target mRNA inhibition (0.313 µM): 73%; target mRNA inhibition (1.25 µM): 73%; target mRNA inhibition (5 µM): 97%
CGTCCAAAAGTGTCCT (sugars k3 d10 k3, PS)	53%	
AGTCTTAAACCTTCCC (sugars kkdddddddddkekek, PS)	43%	
GAGTCGGTCACCTTTC (sugars k3 d1 m1 d8 k3, PS)	55%	
GGCTATAACTGGAAGG (sugars k3 d10 k3, PS)	52%	
ATAACTCTATTGATTG (sugars k3 d10 k3, PS)	39%	
CCTGCTGAAACTTGAT (sugars k3 d10 k3, PS)	19%	
TATGTGATTGAGTTCT (sugars k3 d9 k3 e1, PS)	43%	
CTTAGTGTAGAATTGT (sugars k3 d10 k3, PS)	56%	
GCCTAGTTACAAACCA (sugars k3 d10 k3, PS)	56%	
CGATCCTATATACATC (sugars k3 d1 m1 d8 k3, PS)	28%	
ATCATACCACATACCC (sugars k3 d10 k3, PS)	45%	
TGGGACCAAGGATATA (sugars kkdddddddddkekek, PS)	30%	
ACTACAAGAGGTTATT (sugars k3 d1 m1 d8 k3, PS)	29%	
CACTTTGGTATTGTTG (sugars k3 d10 k3, PS)	53%	
CCAACCCAAGCTACCT (sugars k3 d10 k3, PS)	15%	
TAGCCAGTACAGTTCC (sugars kkdddddddddkekek, PS)	57%	
TATGTGAAGAGCTGGT (sugars k3 d10 k3, PS)	63%	
AGGCAAGGATACCTGA (sugars k3 d10 k3, PS)	42%	
TAAAATAGAGTCGGTC (sugars k3 d1 m1 d8 k3, PS)	52%	
ATTACAGCATCAAGAC (sugars k3 d10 k3, PS)	63%	
AGCCAGTACAGTTCCT (sugars k3 d1 m1 d8 k3, PS)	65%	
TAGTGTAGAATTGTCT (sugars k3 d10 k3, PS)	46%	
CTTGAATAGCAAGCCA (sugars k3 d10 k3, PS)	25%	

Sequence	target mRNA inhibition (1 µM)	other results
TTATTGCCTGAACACA (sugars k3 d10 k3, PS)	58%	
ACTATGTAATAGGCAG (sugars k3 d10 k3, PS)	85%	target mRNA inhibition (0.02 µM): 33%; target mRNA inhibition (0.078 µM): 31%; target mRNA inhibition (0.313 µM): 71%; target mRNA inhibition (1.25 µM): 88%; target mRNA inhibition (5 µM): 94%
TAGTAATTGCATCTGC (sugars k3 d10 k3, PS)	51%	
TGAGTAGTGTAAGCTG (sugars k3 d10 k3, PS)	62%	
GTCCAGGTTGAGATAA (sugars kkdddddddddkekek, PS)	36%	
TAGGCTAAACCCTGGA (sugars k3 d10 k3, PS)	64%	
TTCTUATGTAATAGCC (sugars k3 d1 m1 d8 k3, PS)	66%	
TTATGTGATTGAGTTC (sugars k3 d10 k3, PS)	34%	
GACTATAAAAAGGGAG (sugars k3 d10 k3, PS)	40%	
CACAAGTAAGGTAAAG (sugars k3 d10 k3, PS)	54%	
TATAACTGGAAGGAGG (sugars k3 d10 k3, PS)	44%	
ATACATTAGCAAGCTA (sugars k3 d1 m1 d8 k3, PS)	36%	
CTTTTTATAGACTGGG (sugars k3 d10 k3, PS)	67%	
GATAATTTGGTGTCAT (sugars k3 d10 k3, PS)	59%	
ATCTCTGGGACCAAGG (sugars kkdddddddddkekek, PS)	65%	
GTAAGTATTCCATCTA (sugars k3 d9 k3 e1, PS)	39%	
CAGAUTATTATGTGAT (sugars k3 d1 m1 d8 k3, PS)	32%	
TCCTAGGGAGGAGGTA (sugars k3 d10 k3, PS)	33%	
TAGCTATTGTCTTTGA (sugars k3 d10 k3, PS)	63%	
TAGCTTAAACTCCAAT (sugars k3 d10 k3, PS)	60%	
TCTGATGTCAGACCTC (sugars k3 d10 k3, PS)	42%	
AAAATTATGCCTTGTG (sugars k3 d10 k3, PS)	50%	
AGACATGAGGTTTTGA (sugars k3 d10 k3, PS)	59%	
AGAGACATGAGGTTTT (sugars k3 d10 k3, PS)	77%	target mRNA inhibition (0.02 µM): 18%; target mRNA inhibition (0.078 µM): 16%; target mRNA inhibition (0.313 µM): 47%; target mRNA inhibition (1.25 µM): 69%; target mRNA inhibition (5 µM): 85%
